Numbers after ± are expanded uncertainties.
Assay: xn = mol fraction of the nth substance listed
Conditions: 101 kPa, Liquid; for mass density: Vibrating tube method

NCCO.O=CO [2-hydroxyethylammonium formate] + O
Conditions | mass density [kg/m3] | speed of sound [m/s]
305.65 K, x2 = 0 | – | 1690.8 ± 9.8
305.65 K, x2 = 0.047 | – | 1723.5 ± 9.8
305.65 K, x2 = 0.108 | – | 1725.2 ± 9.6
305.65 K, x2 = 0.199 | – | 1726.8 ± 9.4
305.65 K, x2 = 0.311 | – | 1728.3 ± 9.2
305.65 K, x2 = 0.4 | – | 1728 ± 9.1
305.65 K, x2 = 0.492 | – | 1727.3 ± 8.9
305.65 K, x2 = 0.601 | – | 1723.5 ± 8.8
305.65 K, x2 = 0.699 | – | 1717.4 ± 8.6
305.65 K, x2 = 0.8 | – | 1697.5 ± 8.5
305.65 K, x2 = 0.9 | – | 1649 ± 8.2
305.65 K, x2 = 0.95 | – | 1598.9 ± 8
308.15 K, x2 = 0 | 1169.39 ± 31 | 1684.8 ± 9.7
308.15 K, x2 = 0.047 | 1169.74 ± 31 | 1718.4 ± 9.7
308.15 K, x2 = 0.108 | 1168.41 ± 30 | 1720.2 ± 9.6
308.15 K, x2 = 0.199 | 1165.49 ± 30 | 1721.9 ± 9.4
308.15 K, x2 = 0.311 | 1160.67 ± 30 | 1723.6 ± 9.2
308.15 K, x2 = 0.4 | 1155.85 ± 30 | 1723.5 ± 9
308.15 K, x2 = 0.492 | 1149.4 ± 30 | 1723 ± 8.9
308.15 K, x2 = 0.601 | 1138.94 ± 30 | 1719.6 ± 8.7
308.15 K, x2 = 0.699 | 1125.12 ± 30 | 1714.1 ± 8.6
308.15 K, x2 = 0.8 | 1103.38 ± 30 | 1695.2 ± 8.5
308.15 K, x2 = 0.9 | 1066.39 ± 30 | 1648.9 ± 8.2
308.15 K, x2 = 0.95 | 1036.99 ± 30 | 1600.8 ± 8
310.65 K, x2 = 0 | 1167.62 ± 31 | 1678.7 ± 9.7
310.65 K, x2 = 0.047 | 1168.1 ± 31 | 1713.4 ± 9.7
310.65 K, x2 = 0.108 | 1166.77 ± 30 | 1715.2 ± 9.6
310.65 K, x2 = 0.199 | 1163.86 ± 30 | 1717.1 ± 9.4
310.65 K, x2 = 0.311 | 1159.05 ± 30 | 1718.9 ± 9.2
310.65 K, x2 = 0.4 | 1154.22 ± 30 | 1718.9 ± 9
310.65 K, x2 = 0.492 | 1147.79 ± 30 | 1718.7 ± 8.9
310.65 K, x2 = 0.601 | 1137.34 ± 30 | 1715.6 ± 8.7
310.65 K, x2 = 0.699 | 1123.56 ± 30 | 1710.7 ± 8.6
310.65 K, x2 = 0.8 | 1101.88 ± 30 | 1692.8 ± 8.4
310.65 K, x2 = 0.9 | 1065.06 ± 30 | 1648.6 ± 8.2
310.65 K, x2 = 0.95 | 1035.83 ± 30 | 1602.4 ± 8
313.15 K, x2 = 0 | 1165.84 ± 31 | 1672.7 ± 9.7
313.15 K, x2 = 0.047 | 1166.46 ± 31 | 1708.3 ± 9.7
313.15 K, x2 = 0.108 | 1165.14 ± 30 | 1710.2 ± 9.6
313.15 K, x2 = 0.199 | 1162.22 ± 30 | 1712.1 ± 9.4
313.15 K, x2 = 0.311 | 1157.42 ± 30 | 1714.1 ± 9.2
313.15 K, x2 = 0.4 | 1152.6 ± 30 | 1714.4 ± 9
313.15 K, x2 = 0.492 | 1146.17 ± 30 | 1714.3 ± 8.9
313.15 K, x2 = 0.601 | 1135.74 ± 30 | 1711.7 ± 8.7
313.15 K, x2 = 0.699 | 1121.98 ± 30 | 1707.2 ± 8.6
313.15 K, x2 = 0.8 | 1100.38 ± 30 | 1690.4 ± 8.4
313.15 K, x2 = 0.9 | 1063.71 ± 30 | 1648.2 ± 8.2
313.15 K, x2 = 0.95 | 1034.64 ± 30 | 1603.8 ± 8
315.65 K, x2 = 0 | 1164.06 ± 31 | 1666.7 ± 9.7
315.65 K, x2 = 0.047 | 1164.82 ± 31 | 1703.3 ± 9.7
315.65 K, x2 = 0.108 | 1163.51 ± 30 | 1705.2 ± 9.5
315.65 K, x2 = 0.199 | 1160.59 ± 30 | 1707.2 ± 9.3
315.65 K, x2 = 0.311 | 1155.79 ± 30 | 1709.4 ± 9.1
315.65 K, x2 = 0.4 | 1150.97 ± 30 | 1709.8 ± 9
315.65 K, x2 = 0.492 | 1144.56 ± 30 | 1710 ± 8.8
315.65 K, x2 = 0.601 | 1134.13 ± 30 | 1707.6 ± 8.7
315.65 K, x2 = 0.699 | 1120.4 ± 30 | 1703.7 ± 8.6
315.65 K, x2 = 0.8 | 1098.86 ± 30 | 1687.8 ± 8.4
315.65 K, x2 = 0.9 | 1062.35 ± 30 | 1647.5 ± 8.2
315.65 K, x2 = 0.95 | 1033.42 ± 30 | 1604.9 ± 8
318.15 K, x2 = 0 | 1162.29 ± 31 | 1660.8 ± 9.6
318.15 K, x2 = 0.047 | 1163.18 ± 31 | 1698.3 ± 9.7
318.15 K, x2 = 0.108 | 1161.88 ± 30 | 1700.2 ± 9.5
318.15 K, x2 = 0.199 | 1158.96 ± 30 | 1702.4 ± 9.3
318.15 K, x2 = 0.311 | 1154.16 ± 30 | 1704.7 ± 9.1
318.15 K, x2 = 0.4 | 1149.34 ± 30 | 1705.2 ± 9
318.15 K, x2 = 0.492 | 1142.94 ± 30 | 1705.6 ± 8.8
318.15 K, x2 = 0.601 | 1132.52 ± 30 | 1703.6 ± 8.7
318.15 K, x2 = 0.699 | 1118.82 ± 30 | 1700.2 ± 8.6
318.15 K, x2 = 0.8 | 1097.33 ± 30 | 1685.1 ± 8.4
318.15 K, x2 = 0.9 | 1060.95 ± 30 | 1646.7 ± 8.2
318.15 K, x2 = 0.95 | 1032.17 ± 30 | 1605.8 ± 8
320.65 K, x2 = 0 | 1160.51 ± 31 | 1654.8 ± 9.6
320.65 K, x2 = 0.047 | 1161.55 ± 31 | 1693.3 ± 9.6
320.65 K, x2 = 0.108 | 1160.25 ± 30 | 1695.3 ± 9.5
320.65 K, x2 = 0.199 | 1157.34 ± 30 | 1697.5 ± 9.3
320.65 K, x2 = 0.311 | 1152.53 ± 30 | 1699.9 ± 9.1
320.65 K, x2 = 0.4 | 1147.7 ± 30 | 1700.6 ± 8.9
320.65 K, x2 = 0.492 | 1141.31 ± 30 | 1701.2 ± 8.8
320.65 K, x2 = 0.601 | 1130.9 ± 30 | 1699.5 ± 8.7
320.65 K, x2 = 0.699 | 1117.22 ± 30 | 1696.5 ± 8.6
320.65 K, x2 = 0.8 | 1095.78 ± 30 | 1682.4 ± 8.4
320.65 K, x2 = 0.9 | 1059.54 ± 30 | 1645.7 ± 8.2
320.65 K, x2 = 0.95 | 1030.89 ± 30 | 1606.4 ± 8
323.15 K, x2 = 0 | 1158.73 ± 31 | 1648.9 ± 9.6
323.15 K, x2 = 0.047 | 1159.94 ± 31 | 1688.4 ± 9.7
323.15 K, x2 = 0.108 | 1158.62 ± 30 | 1690.5 ± 9.5
323.15 K, x2 = 0.199 | 1155.72 ± 30 | 1692.7 ± 9.3
323.15 K, x2 = 0.311 | 1150.91 ± 30 | 1695.2 ± 9.1
323.15 K, x2 = 0.4 | 1146.05 ± 30 | 1696 ± 8.9
323.15 K, x2 = 0.492 | 1139.69 ± 30 | 1696.8 ± 8.8
323.15 K, x2 = 0.601 | 1129.29 ± 30 | 1695.4 ± 8.7
323.15 K, x2 = 0.699 | 1115.62 ± 30 | 1692.8 ± 8.5
323.15 K, x2 = 0.8 | 1094.23 ± 30 | 1679.5 ± 8.4
323.15 K, x2 = 0.9 | 1058.12 ± 30 | 1644.6 ± 8.2
323.15 K, x2 = 0.95 | 1029.58 ± 30 | 1606.8 ± 8.1
